Target: Pdr5 (Saccharomyces cerevisiae, UniProt P33302)
Assay: fluorescence transport assay in isolated plasma membranes
Assay type: biochemical
Conditions: 150 nM R6G, 10 mM ATP, 5 mM MgCl2, Hepes pH 7.0, 30 °C

Chain of Pdr5 (P33302 whole entry): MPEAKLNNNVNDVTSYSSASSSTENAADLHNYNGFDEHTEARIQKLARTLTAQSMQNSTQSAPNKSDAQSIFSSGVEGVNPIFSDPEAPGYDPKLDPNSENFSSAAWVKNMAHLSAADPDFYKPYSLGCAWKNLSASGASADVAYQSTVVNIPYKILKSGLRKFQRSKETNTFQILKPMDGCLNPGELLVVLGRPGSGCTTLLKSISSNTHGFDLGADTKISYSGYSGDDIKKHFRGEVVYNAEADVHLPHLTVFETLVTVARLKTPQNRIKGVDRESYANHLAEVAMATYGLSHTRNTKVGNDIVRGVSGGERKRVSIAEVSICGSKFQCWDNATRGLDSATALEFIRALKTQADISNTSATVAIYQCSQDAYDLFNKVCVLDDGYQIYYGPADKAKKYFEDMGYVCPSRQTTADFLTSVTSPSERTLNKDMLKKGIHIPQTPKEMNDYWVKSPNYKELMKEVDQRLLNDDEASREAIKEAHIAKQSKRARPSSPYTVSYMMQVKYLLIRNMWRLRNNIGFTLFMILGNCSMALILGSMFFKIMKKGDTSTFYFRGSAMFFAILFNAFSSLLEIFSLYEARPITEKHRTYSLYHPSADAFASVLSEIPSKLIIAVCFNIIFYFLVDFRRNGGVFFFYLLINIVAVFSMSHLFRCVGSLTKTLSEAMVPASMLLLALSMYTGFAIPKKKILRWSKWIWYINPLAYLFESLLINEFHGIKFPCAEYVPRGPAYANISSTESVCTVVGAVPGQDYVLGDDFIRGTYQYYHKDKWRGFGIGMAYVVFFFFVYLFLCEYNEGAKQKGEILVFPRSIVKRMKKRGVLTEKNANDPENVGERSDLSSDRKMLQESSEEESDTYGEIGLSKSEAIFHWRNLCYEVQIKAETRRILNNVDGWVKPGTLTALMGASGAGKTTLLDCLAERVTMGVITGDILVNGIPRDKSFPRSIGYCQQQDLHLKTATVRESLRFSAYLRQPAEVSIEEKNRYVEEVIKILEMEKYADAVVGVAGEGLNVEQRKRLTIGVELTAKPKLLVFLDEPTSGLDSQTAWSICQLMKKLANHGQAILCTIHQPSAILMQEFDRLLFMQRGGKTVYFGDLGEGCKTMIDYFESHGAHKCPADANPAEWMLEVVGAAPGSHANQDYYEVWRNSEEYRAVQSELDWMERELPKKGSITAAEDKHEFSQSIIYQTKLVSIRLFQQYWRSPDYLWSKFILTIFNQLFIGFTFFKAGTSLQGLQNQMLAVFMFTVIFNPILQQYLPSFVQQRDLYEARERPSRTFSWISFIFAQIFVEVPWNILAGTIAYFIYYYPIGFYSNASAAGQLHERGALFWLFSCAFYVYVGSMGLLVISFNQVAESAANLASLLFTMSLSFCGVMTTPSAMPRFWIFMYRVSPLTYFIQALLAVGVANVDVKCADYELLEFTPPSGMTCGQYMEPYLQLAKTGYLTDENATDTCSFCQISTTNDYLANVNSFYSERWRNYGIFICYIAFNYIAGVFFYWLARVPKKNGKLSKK

In the case of CCN=c1cc2oc3cc(NCC)c(C)cc3c(-c3ccccc3C(=O)OCC)c-2cc1C [rhodamine-6G], the “fluorescence transport assay in isolated plasma membranes” value is reported as “Active transport of rhodamine-6G (R6G) was determined according to a standard protocol”.

Reference: publication PMC5030160 (Nature chemical biology, 2016)
